Reference: patent US20250230193A1, “CYCLIC COMPOUND HAVING SELECTIVE KRAS INHIBITORY EFFECT ON HRAS AND NRAS” (CHUGAI SEIYAKU KABUSHIKI KAISHA, priority 2022, published 2025)

Columns and labels:
[1] = molecular target: GDP-bound HRAS wild-type protein (Homo sapiens, UniProt P01112); assay: Binding to HRAS by surface plasmon resonance (SPR), Single Cycle Kinetics; conditions: SPR, GDP-bound HRAS wild-type vs GDP-bound KRAS wild-type
[2] = molecular target: GDP-bound NRAS wild-type protein (Homo sapiens, UniProt P01111); assay: Binding to NRAS by surface plasmon resonance (SPR), Single Cycle Kinetics; conditions: SPR, GDP-bound NRAS wild-type vs GDP-bound KRAS wild-type
GDP-bound NRAS wild-type protein, sequence (P01111 whole entry): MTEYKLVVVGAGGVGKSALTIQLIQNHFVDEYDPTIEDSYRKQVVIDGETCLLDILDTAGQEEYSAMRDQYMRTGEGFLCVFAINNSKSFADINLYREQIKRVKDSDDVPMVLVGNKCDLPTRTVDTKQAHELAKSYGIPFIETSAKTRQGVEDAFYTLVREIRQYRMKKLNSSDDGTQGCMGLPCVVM

GDP-bound HRAS wild-type protein, sequence (P01112 whole entry): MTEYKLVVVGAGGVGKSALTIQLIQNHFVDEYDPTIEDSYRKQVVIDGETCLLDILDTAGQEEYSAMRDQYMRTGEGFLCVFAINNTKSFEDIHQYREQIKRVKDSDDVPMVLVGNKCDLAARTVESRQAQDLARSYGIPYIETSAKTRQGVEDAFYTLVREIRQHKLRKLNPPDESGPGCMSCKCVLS

| SMILES | HRAS/KRAS (ratio of KD value with respect to HRAS to KD value with respect to KRAS) [1] | NRAS/KRAS (ratio of KD value with respect to NRAS to KD value with respect to KRAS) [2] |
| --- | --- | --- |
| CCO[C@@H]1C[C@H]2C(=O)NC3(CC(C)(C)C3)C(=O)N(C)[C@@H](C(CC)CC)C(=O)N(C)[C@H](C(=O)N(C)C)CC(=O)N(C)[C@@H](CC)C(=O)N[C@@H]([C@@H](C)CC)C(=O)N(C)CC(=O)N(C)[C@H]3C/C=C\CCN(C3=O)[C@@H](Cc3ccc(C(F)(F)F)cc3)C(=O)N(C)CC(=O)N[C@@H](CCc3cc(F)c(C(F)(F)F)c(F)c3)C(=O)N2C1 [PP2062] | A (a compound having 10 or more and less than 20 is denoted as A) | AA (a compound having 20 or more is denoted as AA) |
| C#CC[C@H]1C(=O)N[C@@H]([C@@H](C)CC)C(=O)N(C)CC(=O)N(C)[C@H]2C/C=C\CCN(C2=O)[C@@H](Cc2ccc(C(F)(F)F)cc2)C(=O)N(C)CC(=O)N[C@@H](CCc2ccc(C(F)(F)F)c(OC)c2)C(=O)N2C[C@@H](C)C[C@H]2C(=O)NC2(CCC2)C(=O)N(C)[C@@H](C2CCCC2)C(=O)N(C)[C@H](C(=O)N(C)CCC)CC(=O)N1C [PP2063] | A (a compound having 10 or more and less than 20 is denoted as A) | AA (a compound having 20 or more is denoted as AA) |
| CCC[C@H]1C(=O)N[C@@H]([C@@H](C)CC)C(=O)N(C)CC(=O)N(C)[C@H]2C/C=C\CCN(C2=O)[C@@H](Cc2ccc(C)cc2)C(=O)N(C)CC(=O)N[C@@H](CCc2cc(F)c(C(F)(F)F)c(F)c2)C(=O)N2C[C@H](OCC)C[C@H]2C(=O)NC2(CC(C)(C)C2)C(=O)N(C)[C@@H](C(CC)CC)C(=O)N(C)[C@H](C(=O)N(C)C)CC(=O)N1C [PP2064] | A (a compound having 10 or more and less than 20 is denoted as A) | A (a compound having 10 or more and less than 20 is denoted as A) |
| CC[C@H](C)[C@@H]1NC(=O)[C@H](C(C)C)N(C)C(=O)C[C@@H](C(=O)N(C)CC)N(C)C(=O)[C@H](C2CCCC2)N(C)C(=O)C2(CCC2)NC(=O)[C@@H]2C[C@H](C)CN2C(=O)[C@H](CCc2ccc(C(F)(F)F)c(OC)c2)NC(=O)CN(C)C(=O)[C@H](Cc2ccc(C(F)(F)F)cc2)N2CC/C=C\C[C@@H](C2=O)N(C)C(=O)CN(C)C1=O [PP2065] | B (a compound having 3 or more and less than 10 is denoted as B) | A (a compound having 10 or more and less than 20 is denoted as A) |
| CCO[C@@H]1C[C@H]2C(=O)NC3(CC(C)(C)C3)C(=O)N(C)[C@@H](C(CC)CC)C(=O)N(C)[C@H](C(=O)N(C)C)CC(=O)N(C)[C@@H](CC)C(=O)N[C@@H]([C@@H](C)CC)C(=O)N(C)CC(=O)N(C)[C@H]3C/C=C\CCN(C3=O)[C@@H](Cc3ccc(C(F)(F)F)cc3)C(=O)N(C)CC(=O)N[C@@H](CCc3ccc(C(F)(F)F)c(OC)c3)C(=O)N2C1 [PP2066] | B (a compound having 3 or more and less than 10 is denoted as B) | A (a compound having 10 or more and less than 20 is denoted as A) |
| CCCN(C)C(=O)[C@@H]1CC(=O)N(C)[C@@H](C(C)C)C(=O)N[C@@H]([C@@H](C)CC)C(=O)N(C)CC(=O)N(C)[C@H]2C/C=C\CCN(C2=O)[C@@H](Cc2ccc(C(F)(F)F)cc2)C(=O)N(C)CC(=O)N[C@@H](CCc2ccc(C(F)(F)F)c(OC)c2)C(=O)N2C[C@@H](C)C[C@H]2C(=O)NC2(CCC2)C(=O)N(C)[C@@H](C2CCCC2)C(=O)N1C [PP2067] | A (a compound having 10 or more and less than 20 is denoted as A) | AA (a compound having 20 or more is denoted as AA) |
| CCC[C@H]1C(=O)N[C@@H]([C@@H](C)CC)C(=O)N(C)CC(=O)N(C)[C@H]2C/C=C\CCN(C2=O)[C@@H](Cc2ccc(C)cc2)C(=O)N(C)CC(=O)N[C@@H](CCc2ccc(C(F)(F)F)c(OC)c2)C(=O)N2C[C@H](OCC)C[C@H]2C(=O)NC2(CC(C)(C)C2)C(=O)N(C)[C@@H](C(CC)CC)C(=O)N(C)[C@H](C(=O)N(C)C)CC(=O)N1C [PP2068] | B (a compound having 3 or more and less than 10 is denoted as B) | A (a compound having 10 or more and less than 20 is denoted as A) |
| CC[C@H](C)[C@@H]1NC(=O)[C@H](C2CC2)N(C)C(=O)C[C@@H](C(=O)N(C)CC)N(C)C(=O)[C@H](C2CCCC2)N(C)C(=O)C2(CCC2)NC(=O)[C@@H]2C[C@H](C)CN2C(=O)[C@H](CCc2ccc(C(F)(F)F)c(OC)c2)NC(=O)CN(C)C(=O)[C@H](Cc2ccc(C(F)(F)F)cc2)N2CC/C=C\C[C@@H](C2=O)N(C)C(=O)CN(C)C1=O [PP2069] | A (a compound having 10 or more and less than 20 is denoted as A) | AA (a compound having 20 or more is denoted as AA) |
| CCCN(C)C(=O)[C@@H]1CC(=O)N(C)[C@@H](C2CC2)C(=O)N[C@@H]([C@@H](C)CC)C(=O)N(C)CC(=O)N(C)[C@H]2C/C=C\CCN(C2=O)[C@@H](Cc2ccc(C(F)(F)F)cc2)C(=O)N(C)CC(=O)N[C@@H](CCc2ccc(C(F)(F)F)c(OC)c2)C(=O)N2C[C@@H](C)C[C@H]2C(=O)NC2(CCC2)C(=O)N(C)[C@@H](C2CCCC2)C(=O)N1C [PP2070] | A (a compound having 10 or more and less than 20 is denoted as A) | A (a compound having 10 or more and less than 20 is denoted as A) |
| CC[C@H](C)[C@@H]1NC(=O)[C@H](C2CCC2)N(C)C(=O)C[C@@H](C(=O)N(C)CC)N(C)C(=O)[C@H](C2CCCC2)N(C)C(=O)C2(CCC2)NC(=O)[C@@H]2C[C@H](C)CN2C(=O)[C@H](CCc2ccc(C(F)(F)F)c(OC)c2)NC(=O)CN(C)C(=O)[C@H](Cc2ccc(C(F)(F)F)cc2)N2CC/C=C\C[C@@H](C2=O)N(C)C(=O)CN(C)C1=O [PP2071] | A (a compound having 10 or more and less than 20 is denoted as A) | A (a compound having 10 or more and less than 20 is denoted as A) |
| CCCN(C)C(=O)[C@@H]1CC(=O)N(C)[C@@H](C2CCC2)C(=O)N[C@@H]([C@@H](C)CC)C(=O)N(C)CC(=O)N(C)[C@H]2C/C=C\CCN(C2=O)[C@@H](Cc2ccc(C(F)(F)F)cc2)C(=O)N(C)CC(=O)N[C@@H](CCc2ccc(C(F)(F)F)c(OC)c2)C(=O)N2C[C@@H](C)C[C@H]2C(=O)NC2(CCC2)C(=O)N(C)[C@@H](C2CCCC2)C(=O)N1C [PP2072] | A (a compound having 10 or more and less than 20 is denoted as A) | A (a compound having 10 or more and less than 20 is denoted as A) |
| C#CC[C@H]1C(=O)N[C@@H]([C@@H](C)CC)C(=O)N(C)CC(=O)N(C)[C@H]2C/C=C\CCN(C2=O)[C@@H](Cc2ccc(C(F)(F)F)cc2)C(=O)N(C)CC(=O)N[C@@H](CCc2cc(F)c(C(F)(F)F)c(F)c2)C(=O)N2C[C@H](OCC)C[C@H]2C(=O)NC2(CC(C)(C)C2)C(=O)N(C)[C@@H](C2CCCC2)C(=O)N(C)[C@H](C(=O)N(C)CC)CC(=O)N1C [PP2073] | A (a compound having 10 or more and less than 20 is denoted as A) | A (a compound having 10 or more and less than 20 is denoted as A) |
| C#CC[C@H]1C(=O)N[C@@H]([C@@H](C)CC)C(=O)N(C)CC(=O)N(C)[C@H]2C/C=C\CCN(C2=O)[C@@H](Cc2ccc(C(F)(F)F)cc2)C(=O)N(C)CC(=O)N[C@@H](CCc2cc(F)c(C(F)(F)F)c(F)c2)C(=O)N2C[C@H](OCC)C[C@H]2C(=O)NC2(CC(C)(C)C2)C(=O)N(C)[C@@H](C2CCCC2)C(=O)N(C)[C@H](C(=O)N(C)CCC)CC(=O)N1C [PP2074] | A (a compound having 10 or more and less than 20 is denoted as A) | A (a compound having 10 or more and less than 20 is denoted as A) |
| C#CC[C@H]1C(=O)N[C@@H]([C@@H](C)CC)C(=O)N(C)CC(=O)N(C)[C@H]2C/C=C\CCN(C2=O)[C@@H](Cc2ccc(C(F)(F)F)cc2)C(=O)N(C)CC(=O)N[C@@H](CCc2cc(F)c(C(F)(F)F)c(F)c2)C(=O)N2C[C@@H](C)C[C@H]2C(=O)NC2(CC(C)(C)C2)C(=O)N(C)[C@@H](C2CCCC2)C(=O)N(C)[C@H](C(=O)N(C)CC)CC(=O)N1C [PP2075] | A (a compound having 10 or more and less than 20 is denoted as A) | A (a compound having 10 or more and less than 20 is denoted as A) |
| C#CC[C@H]1C(=O)N[C@@H]([C@@H](C)CC)C(=O)N(C)CC(=O)N(C)[C@H]2C/C=C\CCN(C2=O)[C@@H](Cc2ccc(C(F)(F)F)cc2)C(=O)N(C)CC(=O)N[C@@H](CCc2cc(F)c(C(F)(F)F)c(F)c2)C(=O)N2C[C@@H](C)C[C@H]2C(=O)NC2(CC(C)(C)C2)C(=O)N(C)[C@@H](C2CCCC2)C(=O)N(C)[C@H](C(=O)N(C)CCC)CC(=O)N1C [PP2076] | A (a compound having 10 or more and less than 20 is denoted as A) | A (a compound having 10 or more and less than 20 is denoted as A) |
| C#CC[C@H]1C(=O)N[C@@H]([C@@H](C)CC)C(=O)N(C)CC(=O)N(C)[C@H]2C/C=C\CCN(C2=O)[C@@H](Cc2ccc(C(F)(F)F)cc2)C(=O)N(C)CC(=O)N[C@@H](CCc2cc(F)c(C(F)(F)F)c(F)c2)C(=O)N2C[C@@H](C)C[C@H]2C(=O)NC2(CCC2)C(=O)N(C)[C@@H](C2CCCC2)C(=O)N(C)[C@H](C(=O)N(C)CCC)CC(=O)N1C [PP2077] | A (a compound having 10 or more and less than 20 is denoted as A) | A (a compound having 10 or more and less than 20 is denoted as A) |
